The results in this text go back to patent US8318812B2, “Therapeutic agents for the treatment of lymphoid malignancies” (The Ohio State University Research Foundation, priority 2006, dated 2012).

What all share (assay type): cell-based, Human
In one data set the test system is ERK1/2. The experiment in a line: Western blot of ERK1/2 phosphorylation in Mino cells. The procedure:
Binding of FTY720 accelerates homing of peripheral lymphocytes to lymph node and activation of […] leads to extracellular signal-related kinase 1/2 (ERK1/2) phosphorylation. To determine if FTY720 influenced phosphorylation status of ERK-1, Mino cells were treated with FTY720 and the ERK1/2 phosphorylation status was analyzed by westernblot analysis using phospho ERK-1/2 and ERK1/2 antibodies. […] Similar FTY720 induced time dependent phosphorylation of ERK1/2 was also observed in Jeko cell line (Data not shown). FTY720 induced activation Ras-Raf-MAP kinase signaling pathway resulting in activation of serine/threonine kinase may contribute to ERK1/2 phosphorylation. Consistent with hypothesis ERK1/2 phosphorylation has been reported to occur in cells treated with Sphingosie 1-phosphate, that shares structural similarity to FTY72014. The role of FTY720 induced Erk1/2 phosphorylation in either toxicity, deregulation of the proteins such as Cyclin D1 or Akt and/or accumulation cells in G1 with concomitant decrease in S phase remains to be tested. Nevertheless these studies have identified Cyclin D1 and Akt proteins as two potential biomarkers for FTY720 responsiveness in MCL patient cells.
A general note: Immunoblotting shows a protein as a band on a membrane.

The subject of data set [1] is 697-neo and 697-Bcl-2 cell lines. The experiment in a line: Annexin V/PI viability in 697-neo and 697-Bcl-2 cells. The conditions noted are these: 24 hours. As for the experimental part:
Cells: Blood was obtained from patients with B-cell CLL with informed consent under a protocol approved by the hospital internal review board. All patients examined in this series had immunophenotypically defined CLL as outlined by the modified 96 National Cancer Institute criteria. B-CLL cells were isolated from freshly donated blood using ficoll density gradient centrifugation (Ficoll-Paque Plus, Amershan Biosciences, Piscataway, N.J.). Isolated mononuclear cells were incubated in RPMI 1640 media (Gibco/Invitrogen, Carlsbad, Calif.) supplemented with 10% heat-inactivated fetal bovine serum (FBS, Hyclone Laboratories, Logan, Utah), 2 mM L-glutamine (Invitrogen, Carlsbad, Calif.), and penicillin (100 U/mL)/streptomycin (100 μg/ml) [Sigma-Aldrich, St. Louis] at 37° C. in an atmosphere of 5% CO2. Freshly isolated B-CLL cells were used in all experiments described herein. […]
Analysis of cell viability and apoptosis: The cell viability was carried out by dual staining with Annexin V conjugated to flourescein-isothyocyanate (FITC) and Propidium iodide (PI) as described previously. Briefly, 1×10^6 cells were stained with Annexin V-FITC (BD Pharmingen) and Propidium iodide (BD Pharmingen) for 15 minutes in dark and analyzed by flow cytometry using a Beckman-Coulter EPICS XL cytometer (Beckman-Coulter, Miami, Fla.). […]

A further data set relates to Cyclin D1. In words: Western blot of Cyclin D1 in primary MCL cells. As for the experimental part: Primary MCL cells were isolated from PBMC (with informed patient consent under a protocol approved by IRB) as described before. All the MCL patients were identified as outlined by the World Health Organization (WHO) classification. Human mantle cell lymphoma patient cell lines (Mino and Jeko) were obtained from Dr. Raymond Lai. Primary cells or MCL cell lines were incubated in RPMI 1640 media, supplemented with 10%-20% heat-inactivated fetal bovine serum, 2 mM L-glutamine and penicillin (100 U/mL)/streptomycin ([…]) at 37° C. in an atmosphere of 5% CO2. FTY720 was synthesized as previously described. Toxicity was determined by flow cytometry using Annexin-V-FITC and Propidium Iodide (PI) staining. Apoptotic cells were identified as Annexin-V+ and/or PI+ cells. Cells excluding both FITC and PI were considered viable. Western Blotting was performed as described previously using indicated antibodies. […]
FTY720 induced apoptosis is associated with down-modulation of Cyclin D1 and Akt. […] To determine if the FTY720 induced apoptosis is mediated through modulation of these targets relevant to the pathogenesis of the disease, we evaluated the effect of FTY720 on levels of Cyclin D1, p-Akt and Akt proteins by Wester Blotting analysis using specific antibodies in primary MCL cells and cell lines. […]

`CCCCCCCCc1ccc(CCC(N)(CO)CO)cc1.Cl` [FTY720, 2-Amino-2-[2-(4-octylphenyl)ethyl]propane 1,3-diol hydrochloride]: in the data set on ERK1/2, the “earliest time of ERK1/2 phosphorylation” value came out at 2 h. The “time of maximal ERK1/2 phosphorylation” value in the data set on ERK1/2 was found to be 4 h. Further, the “cellular cytotoxicity in 697-neo versus 697-Bcl-2 over expressing cell line” value in data set [1] is recorded as “comparable levels of cellular cytotoxicity”. Moreover, the “down-regulation of Cyclin D1 protein” value with Cyclin D1 (8 hrs post treatment) amounted to 35%; in the data set with Cyclin D1 (24 hrs), 70%.
